The results in this text go back to patent publication US20240299360A1, “ADAMTS INHIBITORS, PREPARATION METHODS AND MEDICINAL USES THEREOF” (Jiangsu Hengrui Pharmaceuticals Co., Ltd., priority 2020, published 2024).

For assay [1], the target named is ADAMTS-4 recombinant protein (Homo sapiens (Human), UniProt O75173). Nature of the assay: In vitro fluorescence (FRET-peptide) enzymatic assay of ADAMTS-4 activity. The class given is biochemical. To be noted: FRET peptide substrate 15 μM, 10 nM enzyme, 37° C. 3 hours. As to the method:
(§1) A FRET (fluorescence resonance energy transfer) peptide was cleaved by recombinant ADAMTS-4 or ADAMTS-5 proteins into two separate fragments resulting in an increase of fluorescence signal which was quantified. The peptide was 5-FAM-[…](5-TAMRA)K-NH2, customized from ANASPEC. ADAMTS-4 recombinant protein (catalog #4307-AD) and ADAMTS-5 recombinant protein (catalog #2198-AD) were purchased from R&D Systems.
(§2) An assay buffer containing 50 mM HEPES pH 7.5, 100 mM NaCl, 5 mM CaCl2, 0.1% CHAPS and 5% Glycerol was prepared. A volume of 2.5 μl of compound in the assay buffer was dispensed to a 384-well plate, and 2.5 μl of ADAMTS-4 or ADAMTS-5 protein (final concentration in the reaction was 10 nM) was added. The compounds and proteins were pre-incubated at room temperature for 15 minutes. Then, 5 μl of substrate was added to each well. The final substrate concentrations for ADAMTS-4 and ADAMTS-5 were 15 μM and 8 μM, respectively. The fluorescence signal in each well was determined, after incubation at 37° C. for 3 hours, on a TECAN plate reader (Excitation, 490 nm; Emission, 520 nm).
(§3) The data was inputted into GraphPad Prism, and the IC50 values were calculated using function “log (inhibitor) vs. response—Variable slope (four parameters)”. (See Table 1)

In assay [2] the target is T1, ADAMTS-5 recombinant protein (Homo sapiens (Human), UniProt Q9UNA0). Nature of the assay: In vitro fluorescence (FRET-peptide) enzymatic assay of ADAMTS-5 activity. The class given is biochemical. The following applies: FRET peptide substrate 8 μM, 10 nM enzyme, 37° C. 3 hours. As to the method:
as §1, §2, §3

The target of assay [3] is T1, ADAMTS-5 recombinant protein. Nature of the assay: In vitro ELISA of ADAMTS-5 activity (Aggrecan-IGD enzymatic assay). The following applies: aggrecan-IGD substrate, ARGSVIL-peptide ELISA, 37° C. 45 minutes. Format: biochemical. Here is the method:
In this assay, the enzymatic activity of recombinant ADAMTS-5 protein (catalog #2198-AD, R&D Systems) was assayed with a protein substrate, the aggrecan IGD protein. The aggrecan IGD protein is a polypeptide connecting human aggrecan globular domains 1 and 2 (T331-G458) expressed in E. Coli with a C-terminal His-tag (catalog #30411000, BIOTEZ). The enzymatic product ARGSVIL-peptide was detected using an ELISA kit from BioTEZ (catalog #30510111).
An assay buffer containing 50 mM HEPES pH 7.5, 100 mM NaCl, 5 mM CaCl2), 0.1% CHAPS and 5% Glycerol was prepared. Recombinant ADAMTS-5 protein was diluted to 0.3 nM in the assay buffer. Ten μl of […] and 10 μl of compound solution was transferred to each well of a 96-well plate and incubated at room temperature for 15 minutes. Substrate aggrecan-IGD was diluted to 100 nM with the assay buffer and 20 μl was added to each well. The plate was incubated at 37° C. for 45 minutes. After incubation, the newly generated epitope ARGSVIL-peptides were measured using the Aggrecanase Activity ELISA Assay Kit following the manufacturer's instructions. Then, 100 μl of stop solution was added and the absorbance of each well was read at 450 nm, using […] as reference on a TECAN plate reader.
A standard curve of the ELISA assay was generated in GraphPad Prism using Sigmoidal 4PL function and the corresponding peptide concentrations were calculated based on the standard curve. The IC50 values were calculated using function “log (inhibitor) vs. response—Variable slope (four parameters)”. (See Table 2).

The subject of assay [4] is mouse femoral head cartilage. The assay is described as follows: Mouse explant assay (IL-1α induced GAG release). The class given is cell-based. To be noted: inhibition of GAG release, IL-1α 1 ng/ml, 72 hours; for inhibition at 2 µM: compound 2 μM; for inhibition at 20 µM: compound 20 μM. Here is the method:
In this assay, fresh mouse femoral head cartilage was treated with IL-1α protein (Sigma-Aldrich, catalog #12778) in culture media, which induces the cartilage catabolism. Then, the GAGs attached to the cleaved aggrecan fragments (released in the media) and the GAGs attached to the intact aggrecan were measured by dimethylmethylene blue dye in the Glycosaminoglycans Assay Kit (Chondrex, catalog #6022).
Femoral head cartilage samples were isolated from mice (25 days old, male, C57BL/6, from Charles River Lab) and put into 2.0 ml tubes filled-up with media (DMEM, 10% FBS, 4 mM Glutamine, penicillin-streptomycin, 20 mM HEPES). Two hundred μl of media without FBS was added to each well of a 48-well plate, and one piece of cartilage was transferred to a well in the plate. Then the media was aspirated, and compounds and IL-1α protein were added to the plate in a total volume of 400 μl of fresh media without FBS. The final concentration of IL-1α was 1 ng/ml. The plate was incubated at 37° C. for 72 hours in a humidified incubator with 5% CO2 supply.
The supernatant was transferred to a 1.5 ml tube and kept at −20° C. Each cartilage sample was transferred to another 1.5 ml tube containing 400 μl of freshly made papain solution. The papain solution contained 125 μg/ml papain (Sigma-Aldrich, catalog #P3125), 0.1 M sodium acetate (Sigma-Aldrich, catalog #S7899), pH 5.5 and 5 mM EDTA and 5 mM L-cysteine-HCl (Sigma-Aldrich, catalog #C7880). The cartilage samples were kept rocking in a 60° C. water bath for 24 hours. The lysates were vortexed for 10 seconds and spinned at 10,000 rpm for 2 minutes.
Both the supernatant and the lysate samples were diluted with PBS and mixed with 100 μl of dye from the Glycosaminoglycans Assay Kit. The optical density from each well was determined with a TECAN plate reader set to a wavelength of 525 nm.
The concentrations of GAGs in the supernatant and lysates were determined based on the standard curve with a dose range of chondroitin sulfate provided in the kit. The percentage of GAG release was calculated as the following
The test compound effect was expressed as the percent of inhibition using the following formula: […]

Sequence of ADAMTS-4 recombinant protein (O75173 213-685): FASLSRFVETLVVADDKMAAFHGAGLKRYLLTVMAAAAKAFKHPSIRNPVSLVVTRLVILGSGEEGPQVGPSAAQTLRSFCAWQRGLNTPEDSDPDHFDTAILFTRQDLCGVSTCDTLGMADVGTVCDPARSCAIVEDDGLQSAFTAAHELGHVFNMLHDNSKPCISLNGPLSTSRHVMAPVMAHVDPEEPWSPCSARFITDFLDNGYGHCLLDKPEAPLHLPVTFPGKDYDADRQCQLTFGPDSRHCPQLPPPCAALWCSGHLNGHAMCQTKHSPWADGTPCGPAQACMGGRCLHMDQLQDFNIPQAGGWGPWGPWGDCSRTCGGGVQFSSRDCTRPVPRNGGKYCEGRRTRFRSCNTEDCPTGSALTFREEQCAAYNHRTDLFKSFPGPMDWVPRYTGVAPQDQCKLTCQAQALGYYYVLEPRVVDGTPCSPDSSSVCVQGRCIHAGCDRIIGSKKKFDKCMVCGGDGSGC
T1 sequence (Q9UNA0 262-622): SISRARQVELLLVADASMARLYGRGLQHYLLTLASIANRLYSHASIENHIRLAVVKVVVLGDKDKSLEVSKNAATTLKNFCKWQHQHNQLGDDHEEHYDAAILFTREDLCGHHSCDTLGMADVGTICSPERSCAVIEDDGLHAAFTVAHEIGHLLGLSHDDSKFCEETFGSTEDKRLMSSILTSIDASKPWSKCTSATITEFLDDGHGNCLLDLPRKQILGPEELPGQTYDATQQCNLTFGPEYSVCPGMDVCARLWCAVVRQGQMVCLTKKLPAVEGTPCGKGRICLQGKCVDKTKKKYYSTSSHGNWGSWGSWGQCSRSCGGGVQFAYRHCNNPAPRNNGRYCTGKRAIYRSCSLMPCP

With `O=C1NC(=O)[C@](CCC(=O)N2Cc3ccc(C(F)(F)F)cc3C2)(C2CC2)N1` [Example 1, (S)-5-cyclopropyl-5-(3-oxo-3-(5-(trifluoromethyl)isoindolin-2-yl)propyl)imidazolidine-2,4-dione], the IC50 was 60 nM in assay [1], 88 nM in assay [2] and 140 nM in assay [3]. In assay [4], this compound returned an inhibition at 2 µM of 27%. The inhibition at 20 µM in assay [4] was 61%.
The matching figures for `COc1ccc2c(c1)CCN(C(=O)CC[C@@]1(C3CC3)NC(=O)NC1=O)CC2` [Example 5, (S)-5-cyclopropyl-5-(3-(7-methoxy-4,5-dihydro-1H-benzo [d]azepin-3 (2H)-yl)-3-oxopropyl)imidazolidine-2,4-dione]: 46 nM, 73 nM, 240 nM, 19% and 51%.
Taken in the same sequence, the figures for `CC1CN(C(=O)CC[C@@]2(C3CC3)NC(=O)NC2=O)CCc2ccc(Cl)cc21` (stereo partly drawn) [Example 8, (5S)-5-(3-(8-chloro-1-methyl-4,5-dihydro-1H-benzo[d]azepin-3 (2H)-yl)-3-oxopropyl)-5-cyclopropylimidazolidine-2,4-dione] were 66 nM, 53 nM, 130 nM, 22% and 63%.
The matching figures for `O=C1NC(=O)[C@](CCC(=O)N2CCc3ccccc3CC2)(C2CC2)N1` [Example 9, (S)-5-cyclopropyl-5-(3-(4,5-dihydro-1H-benzo[d]azepin-3 (2H)-yl)-3-oxopropyl)imidazolidine-2,4-dione]: 42 nM, 37 nM, 56 nM, 22% and 55%.
In the case of `O=C1NC(=O)[C@](CCC(=O)N2Cc3cc(Cl)c(Cl)cc3C2)(C2CC2)N1` [Example 20, (S)-5-cyclopropyl-5-(3-(5,6-dichloroisoindolin-2-yl)-3-oxopropyl)imidazolidine-2,4-dione], the IC50 in assay [1] worked out at 22 nM. Besides, in assay [2], the IC50 turned out to be 37 nM. In assay [4], this compound came in with an inhibition at 2 µM of 67% and an inhibition at 20 µM of 100%.
With `C[C@H]1CN(C(=O)CC[C@@]2(C3CC3)NC(=O)NC2=O)CCc2ccc(Cl)cc21` [Example 21, (S)-5-(3-((R)-8-chloro-1-methyl-1,2,4,5-tetrahydro-3H-benzo[d]azepin-3-yl)-3-oxopropyl)-5-cyclopropylimidazolidine-2,4-dione], the IC50 in assay [1] stood at 20 nM; in assay [2] it was 16 nM. In addition, testing at 2 µM in assay [4] gave an inhibition of 39%. Besides, the inhibition at 20 µM in assay [4] came to 100%.
Regarding `O=C1NC(=O)[C@](CCC(=O)N2Cc3cc(Cl)c(C(F)(F)F)cc3C2)(C2CC2)N1` [Example 40, (S)-5-(3-(5-chloro-6-(trifluoromethyl)isoindolin-2-yl)-3-oxopropyl)-5-cyclopropylimidazolidine-2,4-dione], the IC50 in assay [1] amounted to 42 nM; in assay [2], 25 nM; in assay [3], 92 nM. This compound displayed an inhibition at 2 µM in assay [4] of 2%. In addition, the inhibition at 20 µM in assay [4] was 52%.
As for `O=C1NC(=O)C(CC(CO)C(=O)N2Cc3cc(Cl)c(Cl)cc3C2)(C2CC2)N1` (stereo not drawn) [Example 42, 5-cyclopropyl-5-(3-(5,6-dichloroisoindolin-2-yl)-2-(hydroxymethyl)-3-oxopropyl)imidazolidine-2,4-dione], the figures for the IC50 in assay [1], in assay [2] and in assay [3] were 11 nM, 14 nM and 17 nM, respectively. This compound also showed an inhibition at 2 µM in assay [4] of 51%. In addition, in assay [4], the inhibition at 20 µM came to 92%.
With `Cn1ccnc1C1(CCC(=O)N2Cc3cc(Cl)c(C(F)(F)F)cc3C2)NC(=O)NC1=O` (stereo not drawn) [Example 73, 5-(3-(5-chloro-6-(trifluoromethyl)isoindolin-2-yl)-3-oxopropyl)-5-(1-methyl-1H-imidazol-2-yl)imidazolidine-2,4-dione], the IC50 in assay [1] turned out to be 61 nM; in assay [2] it was 27 nM; in assay [3], 47 nM.
Regarding `Cc1cc(C2(CCC(=O)N3Cc4cc(Cl)c(C(F)(F)F)cc4C3)NC(=O)NC2=O)no1` (stereo not drawn) [Example 75, 5-(3-(5-chloro-6-(trifluoromethyl)isoindolin-2-yl)-3-oxopropyl)-5-(5-methylisoxazol-3-yl)imidazolidine-2,4-dione], the IC50 was determined as 120 nM in assay [1], 75 nM in assay [2] and 110 nM in assay [3].
The matching figures for `Cc1cc(C2(CCC(=O)N3Cc4cc(Cl)c(C(F)(F)F)cc4C3)NC(=O)NC2=O)n[nH]1` (stereo not drawn) [Example 78, 5-(3-(5-chloro-6-(trifluoromethyl)isoindolin-2-yl)-3-oxopropyl)-5-(5-methyl-1H-pyrazol-3-yl)imidazolidine-2,4-dione]: 160 nM, 57 nM and 76 nM.
For the compound `O=C1NC(=O)C(CCC(=O)N2Cc3cc(Cl)c(C(F)(F)F)cc3C2)(c2ncccn2)N1` (stereo not drawn) [Example 79, 5-(3-(5-chloro-6-(trifluoromethyl)isoindolin-2-yl)-3-oxopropyl)-5-(pyrimidin-2-yl)imidazolidine-2,4-dione], the IC50 in assay [1] turned out to be 250 nM; in assay [2], 110 nM; in assay [3], 210 nM.
With `[2H]C1([2H])c2cc(Cl)c(Cl)cc2C([2H])([2H])N1C(=O)CC[C@@]1(C2CC2)NC(=O)NC1=O` [Example 80, (S)-5-cyclopropyl-5-(3-(5,6-dichloroisoindolin-2-yl-1,1,3,3-d4)-3-oxopropyl)imidazolidine-2,4-dione], the IC50 in assay [1] is 28 nM. Further, in assay [2], the IC50 was 32 nM. In assay [4], this compound registered an inhibition at 2 µM of 30% and an inhibition at 20 µM of 73%.
As to `Cc1nc(C2(CCC(=O)N3Cc4cc(Cl)c(C(F)(F)F)cc4C3)NC(=O)NC2=O)co1` (stereo not drawn) [Example 81, 5-(3-(5-chloro-6-(trifluoromethyl)isoindolin-2-yl)-3-oxopropyl)-5-(2-methyloxazol-4-yl)imidazolidine-2,4-dione], the IC50 amounted to 260 nM in assay [1], 77 nM in assay [2] and 120 nM in assay [3].
